The test system of series [1] is rat hepatocytes. Briefly: Activation of Compound 1.1 to Etoposide in rat hepatocytes. The series is classed as in vitro ADME. Here is the method:
Methods: Hepatocytes were prepared from fed Sprague-Dawley rats (250-300 g) according to the procedure of Berry and Friend (Berry, M. N., Friend, D. S. J. Cell Biol. 43, 506-520 (1969)) as modified by Groen (Groen, A. K. et al. Eur J. Biochem 122, 87-93 (1982)). Hepatocytes (75 mg wet weight/ml) were incubated in 1 ml Krebs-bicarbonate buffer containing 10 mM glucose, and 1 mg/ml BSA. Incubations were carried out in a 95% oxygen, 5% carbon dioxide atmosphere in closed, 50-ml Falcon tubes submerged in a rapidly shaking water bath (37° C.). A 10 mM stock solution of Compound 1.1 was prepared in methanol, and then diluted into the cell suspension or Krebs-bicarbonate buffer to yield a final concentration of 100 μM. […] The cell extracts in the acid layers were neutralized, and the intracellular prodrug metabolite content analyzed by reverse phase HPLC with use of a Beckman Ultrasphere ODS column (4.6×150 mm). The column was equilibrated with 20 mM potassium phosphate buffer, pH 6.3, and eluted with a gradient to 100% methanol. Detection was at 284 nm. Peaks on the chromatograms were identified by comparison to the retention times and spectra of standards of prodrug and parent compound.

Series [2] is described as follows: Tissue homogenate activity (activation in homogenates from various tissues). The series is classed as in vitro ADME, rat. The conditions noted are these: 100 μM, 1 hour. On the procedure: Compound 1.1 is tested for activation in homogenates from various tissues to assess the specificity-of liver activation.
Methods: Rats are anesthetized under halothane and tissues including liver, kidney, brain, heart, stomach, spleen, muscle, lung, and testis are excised and frozen in liquid nitrogen. Tissues are then homogenized in 1 to 3 volumes of 50 mM Tris-HCl, 154 mM KCL, 1 mM EGTA, pH 7.4. The homogenates are centrifuged at 10,000 rpm and 4° C. for 30 minutes and the supernatant recovered. Liver cytosol is prepared by centrifuging the crude liver extract for 1 hour at 40,000 rpm and […]. Reaction mixtures consist of 50 mM KH2PO4 pH 7.4, 13 mM glucose-6-phosphate, 2 mM NADP+, 10 units of glucose-6-phosphate dehydrogenase, 100 μM Compound 1.1 and tissue homogenate or liver cytosol at a protein concentration of 8.5 mg/ml. Reactions are incubated at 37° C. Aliquots are taken after 0 and 1 hour of incubation, and extracted with 60% methanol. The methanolic extracts are centrifuged at 14,000 rpm, and filtered prior to analysis by HPLC.

In series [3] the test system is parent cell line (AHH-1 TK+/−) which does not express CYP3A4. Briefly: Compound 1.1 activity in parent lymphoblastoid cells not expressing CYP3A4 (colony forming ability). The conditions noted are these: non-CYP3A4 expressing cells, 24 hours exposure, 14 days culture. On the procedure: Following drug exposure, cells are diluted to 10 cells/ml and cultured for 14 days to determine colony forming ability.

A short description of series [4]: Liver delivery of Etoposide following administration to rat. The series is classed as in vivo. On the procedure:
At appropriate time points following drug administration, animals are lightly anesthetized with halothane. The peritoneal cavity is then opened and a blood sample is obtained from the abdominal vena cava and the liver freeze-clamped and excised.
The blood samples are heparinized and plasma is prepared. Plasma samples (100 μL) are mixed with perchloric acid or methanol, vortexed, and then clarified by centrifugation. The supernatants are analyzed for Etoposide by HPLC as described in Example A.
Livers are immediately homogenized in 3 volumes of 10% perchloric acid (w/w), and the extracts clarified by centrifugation at 2500×g (5 minutes). The resulting supernatants are removed and neutralized with 0.3 volumes of 3M KOH/3M KHCO3. The neutralized liver extracts are then spun in an Eppendorf microfuge at 10,000 rpm (20 minutes, 4° C.). The supernatants are analyzed for Etoposide as described above.

For series [5], the target named is T1, recombinant human P450-isozyme, CYP3A4 (Homo sapiens, UniProt P08684).
T1 construct: purchased Panvera Corp., Madison, Wis; host or cells: baculovirus-infected insect cells (microsomes, Baculosomes)
T1 sequence (P08684 whole entry): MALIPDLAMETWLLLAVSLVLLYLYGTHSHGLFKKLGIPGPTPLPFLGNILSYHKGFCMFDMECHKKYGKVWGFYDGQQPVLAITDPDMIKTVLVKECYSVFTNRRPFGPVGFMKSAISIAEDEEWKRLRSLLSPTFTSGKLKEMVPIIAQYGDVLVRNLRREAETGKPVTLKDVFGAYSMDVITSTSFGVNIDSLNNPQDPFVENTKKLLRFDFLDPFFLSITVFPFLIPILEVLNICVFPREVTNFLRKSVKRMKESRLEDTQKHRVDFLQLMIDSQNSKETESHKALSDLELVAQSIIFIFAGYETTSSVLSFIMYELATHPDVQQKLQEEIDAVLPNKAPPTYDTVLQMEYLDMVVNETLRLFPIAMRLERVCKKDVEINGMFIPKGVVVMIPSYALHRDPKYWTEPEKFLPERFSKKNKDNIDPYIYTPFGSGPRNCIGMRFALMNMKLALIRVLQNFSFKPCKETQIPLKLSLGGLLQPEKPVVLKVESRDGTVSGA
Briefly: Activation of Compound 1.1 in vitro by recombinant CYP3A4. The series is classed as in vitro ADME. The settings on record: 1 mg/ml Baculosomes, 100 μM Compound 1.1, 2 mM NADPH, 37° C. On the procedure:
Activation of Compound 1.1 was evaluated in reactions containing microsomes from baculovirus-infected insect cells co-expressing recombinant human P450-isozyme, CYP3A4, and cytochrome P450 reductase (Panvera Corp., Madison, Wis.).
Methods: Reaction mixtures (0.5 ml @ 37° C.) consisted of 1 mg/ml Baculosomes, 100 μM Compound 1.1, 2 mM NADPH and 100 mM KH2PO4 buffer. Reactions were incubated for 30 minutes in an Eppendorf Thermomixer 5436 at 37° C., and reciprocal shaking speed setting 6. 100 μl aliquots were collected at 0, 10, 20 and 30 minutes and quenched with 1.5 volumes of methanol. These extracts were spun for 10 minutes at 14,000 rpm in an Eppendorf microfuge and the supernatants were lyophilized to remove the methanol. The dried supernatant pellets were resuspended in 100 μl 20 mM potassium phosphate buffer, pH 6.3, clarified by centrifugation, and analyzed by HPLC as described in Example A.

For series [6], the system named is human liver microsomes (CYP3A4, CYP1A2, CYP2C9). Briefly: Identification of the P450 isozyme involved in the activation (human microsomes with isozyme inhibitors). Type of series: in vitro ADME. The settings on record: 0-100 μM inhibitor, 250 μM prodrug. Here is the method:
Prodrugs are evaluated for human microsome-catalyzed conversion to parent compound in the absence and presence of specific inhibitors of three major P450 isozymes: ketoconazole (CYP3A4), furafylline (CYP1A2), and sulfaphenazole (CYP2C9).
Methods: Reactions (0.5 ml @ 37° C.) consist of 0.2 M KH2PO4, 13 mM glucose-6-phosphate, 2.2 mM NADP^+, 1 unit of glucose-6-phosphate dehydrogenase, 0-2.5 mg/ml human microsomal protein (In Vitro Technologies, Inc.), 250 μM prodrug, and 0-100 μM P450 isozyme inhibitor. Reactions are stopped by addition of methanol to a concentration of 60%, filtered ([…]), and lyophilized. Samples are resuspended in HPLC buffer (10 mM phosphate pH 5.5, 2.5 mM octyl-triethyl-ammonium), loaded onto a YMC C8 HPLC column (250×4.6 mm), and eluted with a methanol gradient to 80%. Formation of parent drug is confirmed by co-elution with an authentic parent drug standard.

Series [7] has as its system rat embryos in culture. The conditions noted are these: rat embryos in culture (Teratology 39, 31-37 (1989)); cited from earlier work.

For `COc1cc(C2c3cc4c(cc3C(OC3OC5COC(C)OC5C(O)C3O)C3COC(=O)C23)OCO4)cc(OC)c1OP1(=O)OCCC(c2ccncc2)O1` (stereo not shown) [Compound 1.1, 4′-O-(2-oxo-4-pyridyl-1,3,2-dioxaphosphorinan-2-yl)-etoposide], the “stability in cell-free incubations” value in series [1] (Krebs-bicarbonate buffer without cells, 100 μM, 37° C.) is given as “stable”. Moreover, the “intracellular levels of Etoposide” value in series [1] (rat hepatocytes, 100 μM Compound 1.1, 2-hour time point) is listed as “approximately 40 nmoles/gram of cells”. Further, in series [1] (rat hepatocytes, 100 μM, 37° C.), the “activation to Etoposide phosphate and free Etoposide” value is given as “activated to Etoposide”. Moreover, in series [2] (8.5 mg/ml protein, 37° C.), the “activation in crude rat liver homogenate” value is “depletion of the prodrug and formation of parent compound”. Moreover, the “activation in other tissue homogenates” value in series [2] (kidney, brain, heart, stomach, spleen, muscle, lung, testis) is given as “fails to result in appreciable activation”. For the same compound, in series [2] (liver cytosol without microsomal P450 enzymes, 37° C.), the “activation in liver cytosol” value is on record as “does not result in activation”. For the same compound, the “cytotoxicity (inhibition of cell colony formation)” value in series [3] was “substantial reduction cytotoxic activity”. The liver specificity result in series [4] (in vivo, relative to free etoposide) is “enhanced liver specificity”. Moreover, in series [4] (rat, oral or intravenous, compared to administration of free Etoposide), the “area under the curve of Etoposide in liver” value is “higher”. Besides, the “levels of Etoposide in plasma” value in series [4] (rat, oral or intravenous, compared to free Etoposide) is “Reduced levels”. Moreover, the “rate of Etoposide phosphate formation” value in series [5] is listed as 386 nmoles Etoposide phosphate/nmole CYP3A4/h.

`CC(=O)N1CCN(c2ccc(OCC3COC(Cn4ccnc4)(c4ccc(Cl)cc4Cl)O3)cc2)CC1` (stereo not shown) [Ketoconazole, ketoconazole]: the “inhibition of formation of parent drug by P450 isozyme inhibitor” value (shortened to “inhibition of formation of parent drug”) is “inhibit the formation parent drug in a dose-dependent fashion” in series [6] and “inhibition of drug formation” in series [6] (listed as ketoconozole).

In the case of `C=CC(=O)c1ccccc1` [Phenyl vinyl ketone], the teratogenic activity entry in series [7] is “lacks teratogenic activity”.

Take `Cc1nc2c([nH]1)c(=O)n(C)c(=O)n2Cc1ccco1` [furafylline]: in series [6], the “inhibition of formation of parent drug” value is listed as “no significant inhibition”.

As to `Nc1ccc(S(=O)(=O)Nc2ccnn2-c2ccccc2)cc1` [sulfaphenazole], the “inhibition of formation of parent drug” value in series [6] is reported as “no significant inhibition”.

(Values after patent US7303739B2, “Prodrugs for liver specific drug delivery” (Metabasis Therapeutics, Inc., priority 1999, dated 2007).)
